What follows are molecules tested against human PAD4 (hPAD4) (Homo sapiens, UniProt Q9UM07) (assay: RFMS human PAD4 functional assay (rapid-fire mass spectrum)). Settings: 5 nM hPAD4 enzyme, 250 μM BAEE, 50 μM Calcium; 30 min preincubation, 90 min reaction at 37° C.
Chain of human PAD4 (hPAD4) (Q9UM07 whole entry): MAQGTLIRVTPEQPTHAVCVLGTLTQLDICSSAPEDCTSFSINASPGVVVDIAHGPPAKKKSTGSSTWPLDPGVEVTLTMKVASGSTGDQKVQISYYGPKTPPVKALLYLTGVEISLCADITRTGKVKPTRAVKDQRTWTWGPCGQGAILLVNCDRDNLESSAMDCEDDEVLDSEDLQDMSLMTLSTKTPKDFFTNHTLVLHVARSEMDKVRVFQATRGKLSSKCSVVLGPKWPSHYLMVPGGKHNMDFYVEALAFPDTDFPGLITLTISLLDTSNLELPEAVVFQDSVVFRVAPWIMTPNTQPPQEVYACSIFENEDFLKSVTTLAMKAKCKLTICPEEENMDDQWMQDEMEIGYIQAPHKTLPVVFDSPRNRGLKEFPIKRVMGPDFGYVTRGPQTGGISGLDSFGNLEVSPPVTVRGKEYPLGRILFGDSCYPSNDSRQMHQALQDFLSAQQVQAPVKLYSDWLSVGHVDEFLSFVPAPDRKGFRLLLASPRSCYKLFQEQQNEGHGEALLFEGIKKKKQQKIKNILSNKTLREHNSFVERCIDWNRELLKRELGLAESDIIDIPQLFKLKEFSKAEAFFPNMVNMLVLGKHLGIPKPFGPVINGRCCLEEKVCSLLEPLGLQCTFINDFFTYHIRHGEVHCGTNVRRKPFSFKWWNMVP
Format: biochemical
Method in brief: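 PAD4 (10 nM) preincubated 30 min with compound (top final 50 μM), then BAEE substrate added in pH 7.5 HEPES buffer with DTT, 50 μM calcium, TPEN; 90 min at 37° C. After TCA quench, citrulline derivatized with phenyl glyoxal (4 mM final, 30 min, 37° C) and quantified by RapidFire MS against internal standard.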
An IC50 of 14 nM was found for COc1cc(C(=O)N2CC3CCC2[C@@H]3N)cc2nc(-c3cc4cccnc4n3CC3CC3)n(CC3CN(C(=O)[C@H]4C[C@@H]4c4ccccc4)C3)c12 (stereo partly drawn) [Example 103, (1R,4R,7R)-2-{2-[1-(cyclopropylmethyl)-1H-pyrrolo[2,3-b]pyridin-2-yl]-7-methoxy-1-({1-[(1S,2S)-2-phenylcyclopropanecarbonyl]aze-tidin-3-yl}-methyl)-1H-1,3-benzodiazole-5-carbonyl}-2-azabicyclo[2.2.1]heptan-7-amine] in this work.
An IC50 of 23 nM was found for COc1cc(C(=O)N2CC3CCC2[C@@H]3N)cc2nc(-c3cc4ccccc4n3CC3CC3)n(Cc3cnn(C)c3C)c12 (stereo partly drawn) [Example 482, (7R)-2-{2-[1-(cyclopropylmethyl)-1H-indol-2-yl]-1-[(1,5-dimethyl-1H-pyrazol-4-yl)methyl]-7-methoxy-1H-1,3-benzodiazole-5-carbonyl}-2-azabicyclo[2.2.1]heptan-7-amine] in this work.
An IC50 of 440 nM was found for COc1cc(C(=O)N2C[C@H]3CC[C@@H]2[C@@H]3N)cc2nc(-c3cc4cccnc4n3C)n(CC3CN(c4ncccn4)C3)c12 [Example 83, (1R,4R,7R)-2-(7-methoxy-2-{1-methyl-1H-pyrrolo[2,3-b]pyridin-2-yl}-1-{[1-(pyrimidin-2-yl)azetidin-3-yl]methyl}-1H-1,3-benzodiazole-5-carbonyl)-2-azabicyclo[2.2.1]heptan-7-amine] in this work.
An IC50 of 30 nM was found for Cn1cc(Cn2c(-c3cc4ccccc4n3CC3CC3)nc3cc(C(=O)N4CC5CCC4[C@@H]5N)cc(Cl)c32)cn1 (stereo partly drawn) [Example 484, (7R)-2-{7-chloro-2-[1-(cyclopropylmethyl)-1H-indol-2-yl]-1-[(1-methyl-1H-pyrazol-4-yl)methyl]-1H-1,3-benzodiazole-5-carbonyl}-2-azabicyclo[2.2.1]heptan-7-amine] in this work.
An IC50 of 43 nM was found for COc1cc(C(=O)N2CC3CCC2[C@@H]3N)cc2nc(-c3cc4cccnc4n3CC3CC3)n(CC3CN(C(=O)c4ccc(F)cc4)C3)c12 (stereo partly drawn) [Example 447, (7R)-2-{2-[1-(cyclopropylmethyl)-1H-pyrrolo[2,3-b]pyridin-2-yl]-1-{[1-(4-fluorobenzoyl)azetidin-3-yl]methyl}-7-methoxy-1H-1,3-benzodiazole-5-carbonyl}-2-azabicyclo[2.2.1]heptan-7-amine] in this work.
An IC50 of 925 nM was found for COC(=O)NCCn1c(-c2cc3cccnc3n2CC2CC2)nc2cc(C(=O)N3C[C@H]4CC[C@@H]3[C@@H]4N)cc(OC)c21 [Example 284, methyl N-(2-{5-[(1R,4R,7R)-7-amino-2-azabicyclo[2.2.1]heptane-2-carbonyl]-2-[1-(cyclopropylmethyl)-1H-pyrrolo[2,3-b]pyridin-2-yl]-7-methoxy-1H-1,3-benzodiazol-1-yl}ethyl)carbamate] in this work.
An IC50 of 14 nM was found for COc1cc(C(=O)N2C[C@H]3CC[C@@H]2[C@@H]3N)cc2nc(-c3cc4ccccc4n3CC3CC3)n(CC3CN(C(=O)c4cccc(C#N)c4)C3)c12 [Example 141, 3-[3-({5-[(1R,4R,7R)-7-amino-2-azabicyclo[2.2.1]heptane-2-carbonyl]-2-[1-(cyclopropylmethyl)-1H-indol-2-yl]-7-methoxy-1H-1,3-benzodiazol-1-yl}methyl)azetidine-1-carbonyl]benzonitrile] in this work.
An IC50 of 113 nM was found for COc1cc(C(=O)N2C[C@H]3CC[C@@H]2[C@@H]3N)cc2nc(-c3cc4cccnc4n3CC3CC3)n(C3CN(c4nccc(C(=O)O)n4)C3)c12 [Example 72, 2-(3-{5-[(1R,4R,7R)-7-amino-2-azabicyclo[2.2.1]heptane-2-carbonyl]-2-[1-(cyclopropylmethyl)-1H-pyrrolo[2,3-b]pyridin-2-yl]-7-methoxy-1H-1,3-benzodiazol-1-yl}azetidin-1-yl)pyrimidine-4-carboxylic acid] in this work.
An IC50 of 38 nM was found for COc1cc(C(=O)N2C[C@H]3CC[C@@H]2[C@@H]3N)cc2nc(-c3cc4cccnc4n3CC3CC3)n(CC3CN(c4ccnc(S(C)(=O)=O)n4)C3)c12 [Example 13, (1R,4R,7R)-2-{2-[1-(cyclopropylmethyl)-1H-pyrrolo[2,3-b]pyridin-2-yl]-1-{[1-(2-methanesulfonylpyrimidin-4-yl)azetidin-3-yl]methyl}-7-methoxy-1H-1,3-benzodiazole-5-carbonyl}-2-azabicyclo[2.2.1]heptan-7-amine] in this work.
An IC50 of 37 nM was found for COc1cc(C(=O)N2CC3CCC2[C@@H]3N)cc2nc(-c3cc4cccnc4n3CC3CC3)n(Cc3cnn(-c4ccc[n+]([O-])c4)c3)c12 (stereo partly drawn) [Example 377, 3-[4-({5-[(7R)-7-amino-2-azabicyclo[2.2.1]heptane-2-carbonyl]-2-[1-(cyclopropylmethyl)-1H-pyrrolo[2,3-b]pyridin-2-yl]-7-methoxy-1H-1,3-benzodiazol-1-yl}methyl)-1H-pyrazol-1-yl]pyridin-1-ium-1-olate] in this work.
An IC50 of 23 nM was found for COc1cc(C(=O)N2C[C@H](N)C[C@@H](F)C2)cc2nc(-c3cc4ccccc4n3CC3CC3)n(CC3CN(C(=O)c4cccc(F)c4)C3)c12 [Example 157, (3R,5R)-1-{2-[1-(cyclopropylmethyl)-1H-indol-2-yl]-1-{[1-(3-fluorobenzoyl)azetidin-3-yl]methyl}-7-methoxy-1H-1,3-benzodiazol-5-carbonyl}-5-fluoropiperidin-3-amine] in this work.
An IC50 of 32 nM was found for COc1cc(C(=O)N2CC3CCC2[C@@H]3N)cc2nc(-c3cc4cccnc4n3CC3CC3)n(Cc3cnn(-c4cncc(F)c4)c3)c12 (stereo partly drawn) [Example 372, (7R)-2-{2-[1-(cyclopropylmethyl)-1H-pyrrolo[2,3-b]pyridin-2-yl]-1-{[1-(5-fluoropyridin-3-yl)-1H-pyrazol-4-yl]methyl}-7-methoxy-1H-1,3-benzodiazole-5-carbonyl}-2-azabicyclo[2.2.1]heptan-7-amine] in this work.
An IC50 of 57 nM was found for COc1cc(C(=O)N2C[C@H]3CC[C@@H]2[C@@H]3N)cc2nc(-c3cc4cccnc4n3CC3CC3)n(CC3CN(c4cccc(C#N)n4)C3)c12 [Example 21, 6-[3-({5-[(1R,4R,7R)-7-amino-2-azabicyclo[2.2.1]heptane-2-carbonyl]-2-[1-(cyclopropylmethyl)-1H-pyrrolo[2,3-b]pyridin-2-yl]-7-methoxy-1H-1,3-benzodiazol-1-yl}methyl)azetidin-1-yl]pyridine-2-carbonitrile] in this work.
An IC50 of 116 nM was found for COc1ncccc1-n1cc(Cn2c(-c3cc4cccnc4n3CC3CC3)nc3cc(C(=O)N4C[C@H](N)C[C@@H](F)C4)cc(OC)c32)cn1 [Example 343, (3R,5R)-1-{2-[1-(cyclopropylmethyl)-1H-pyrrolo[2,3-b]pyridin-2-yl]-7-methoxy-1-{[1-(2-methoxypyridin-3-yl)-1H-pyrazol-4-yl]methyl}-1H-1,3-benzodiazole-5-carbonyl}-5-fluoropiperidin-3-amine] in this work.
An IC50 of 1570 nM was found for COC(=O)N1CC(Cn2c(-c3cc4cccnc4n3CC3CC3)nc3cc(C(=O)N4CCC[C@@H](N)C4)cc(OC)c32)C1 [Example 192, methyl 3-({5-[(3R)-3-aminopiperidine-1-carbonyl]-2-[1-(cyclopropylmethyl)-1H-pyrrolo[2,3-b]pyridin-2-yl]-7-methoxy-1H-1,3-benzodiazol-1-yl}methyl)azetidine-1-carboxylate] in this work.
An IC50 of 30 nM was found for COc1cc(C(=O)N2CC3CCC2[C@@H]3N)cc2nc(-c3cc4cccnc4n3CC3CC3)n(Cc3cnn(-c4ccc(F)cn4)c3)c12 (stereo partly drawn) [Example 371, (7R)-2-{2-[1-(cyclopropylmethyl)-1H-pyrrolo[2,3-b]pyridin-2-yl]-1-{[1-(5-fluoropyridin-2-yl)-1H-pyrazol-4-yl]methyl}-7-methoxy-1H-1,3-benzodiazole-5-carbonyl}-2-azabicyclo[2.2.1]heptan-7-amine] in this work.

Source: patent publication US12692254B2, “Benzimidazole inhibitors of PAD enzymes” (BRISTOL-MYERS SQUIBB COMPANY, priority 2018, dated 2026)
